These results are taken from publication PMC1350429 (Purinergic Signalling, 2005).

The target of assay [1] is T1, human P2Y1 receptor (Homo sapiens, UniProt P47900). In kind it is cell-based. The note with it: for Calcium response on addition of nucleotide: control experiments.
For assay [2], the target named is T1, human P2Y1 receptor. The assay can be described thus: Yeast liquid growth assay. In kind it is cell-based.
For assay [3], the target named is T1, human P2Y1 receptor. In words: [3H]MRS2279 binding assay, membranes from astrocytoma cells.
For another assay, the target named is P2Y1 receptor. The note with it: read-out: KB previously reported; cited from earlier work.
[4] abbreviates: read-out: Functional potency (EC50), Calcium (astrocytoma), 1321N1 astrocytoma cells, FlexStation, n = 3.
Where [5] appears, read: read-out: Binding (Ki), Astrocytoma, competition for [3H]MRS2279 (8 nM) binding, 30 min, 4°C.

Where two headings read alike, the source gives them in different places.

T1 sequence (P47900 whole entry): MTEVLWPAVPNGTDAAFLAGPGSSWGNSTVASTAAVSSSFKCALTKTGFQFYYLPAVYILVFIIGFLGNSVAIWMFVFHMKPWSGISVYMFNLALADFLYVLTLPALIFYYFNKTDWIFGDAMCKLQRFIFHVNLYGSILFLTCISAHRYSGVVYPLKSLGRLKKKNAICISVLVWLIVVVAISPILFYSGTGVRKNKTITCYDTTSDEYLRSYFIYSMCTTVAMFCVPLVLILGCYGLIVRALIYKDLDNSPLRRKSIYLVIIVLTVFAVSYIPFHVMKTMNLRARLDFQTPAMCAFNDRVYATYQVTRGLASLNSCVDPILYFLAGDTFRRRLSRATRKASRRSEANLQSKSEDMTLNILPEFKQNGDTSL

By EC50 is commonly meant the concentration that produces a half-maximal response. With `Nc1ncnc2c1ncn2[C@@H]1O[C@H](COP(=O)(O)OP(=O)(O)OP(=O)(O)O)[C@@H](N)[C@H]1O` [3AM-ATP, 3′-amino-3′-deoxy-ATP], the concentration for a half-maximal effect (EC50) at human P2Y1 receptor [1] (setting [4]) was 3000 ± 1500 nM.
In the case of `O=c1ccn([C@@H]2O[C@H](COP(=O)(O)OP(=O)(O)O)[C@@H](O)[C@H]2O)c(=O)[nH]1` [UDP, uridine 5’-diphosphate], the “Calcium response on addition of nucleotide” value at human P2Y1 receptor [1] was “did not induce any response”. Moreover, the “Yeast growth in presence of nucleotide” value on human P2Y1 receptor [2] (data not shown) was “Basal growth was low”.
As for `Nc1ncnc2c1ncn2[C@@H]1O[C@H](COP(=O)(O)OP(=O)(O)O)[C@@H](O)[C@H]1O` [ADP, adenosine 5′-diphosphate], the EC50 at human P2Y1 receptor [1] is 58 ± 17 nM; on human P2Y1 receptor [2], 1800 ± 650 nM.
`O=c1ccn([C@@H]2O[C@H](COP(=O)(O)OP(=O)(O)OP(=O)(O)O)[C@@H](O)[C@H]2O)c(=O)[nH]1` [UTP, uridine 5’-triphosphate]: the “Calcium response on addition of nucleotide” value on human P2Y1 receptor [1] is “did not induce any response”.
The term Ki denotes a measure of affinity in units of concentration, obtained from inhibition or displacement. As to `Nc1ccc(CCSc2nc(N)c3ncn([C@@H]4O[C@H](COP(=O)(O)OP(=O)(O)OP(=O)(O)O)[C@@H](O)[C@H]4O)c3n2)cc1` [PAPET-ATP, 2-[4-amino (2-phenylethyl)thio]-ATP], at human P2Y1 receptor [1] (setting [4]), the concentration for a half-maximal effect (EC50) stood at 28 ± 13 nM. In addition, on human P2Y1 receptor [3] (setting [5]), the Ki was determined as 1100 nM.
On to `Nc1ncnc2c1ncn2[C@@H]1O[C@H](COP(=O)(O)OP(=O)(O)S)[C@@H](O)[C@H]1O` (stereo partly drawn) [ADP-β-S, adenosine 5′-O-(2-thio-diphosphate)], for which the results for the EC50 at human P2Y1 receptor [1] and on human P2Y1 receptor [2] were 86 ± 42 nM and 21000 nM, respectively. The same molecule came in with a Ki on human P2Y1 receptor [3] of 710 nM.
Turning to `CNc1ncnc2c1ncn2[C@H]1C[C@H](OP(=O)(O)O)[C@@H](COP(=O)(O)O)O1` [MRS2179, N^6-methyl-2′-deoxyadenosine-3′,5′-bisphosphate], the Kb at human P2Y1 receptor [1] (KB (Schild analysis), antagonism of ADP-induced calcium mobilization) was 164 nM; on P2Y1 receptor it was 177 nM. Also, the “Effect on ADP concentration-response curve in yeast growth assay” value on human P2Y1 receptor [2] (MRS2179 fixed at 10^-6, 10^-5, 10^-4 M, agonist ADP) is given as “right shift in the curves”.
Take “2-hexylthioadenosine 5′-monophosphate [HT-AMP]”: on human P2Y1 receptor [1] (setting [4]), the EC50 is 16 ± 11 nM. Moreover, the Ki on human P2Y1 receptor [3] (setting [5]) worked out at 1700 nM.
